# From PMC5218480 (PLoS ONE, 2017)
# System: MV-4-11 cells
# Experiment: Gene expression microarray analysis (Affymetrix PrimeView) and GSEA
# Assay type: cell-based, human
# Design: RFU PODN (11730768_x_at) / Fold change /veh PODN (11730768_x_at) / RFU LINC00158 (11744669_a_at) / Fold change /veh LINC00158 (11744669_a_at) / RFU DUSP10 (11751237_a_at) / Fold change /veh DUSP10 (11751237_a_at) / RFU ID3 (11757404_x_at) / Fold change /veh ID3 (11757404_x_at) / RFU PLEKHG5 (11737974_s_at) / Fold change /veh PLEKHG5 (11737974_s_at) / RFU LRRC4B (11730491_at) / Fold change /veh LRRC4B (11730491_at) / RFU GIMAP4 (11747438_a_at) / Fold change /veh GIMAP4 (11747438_a_at) / RFU KRT8 (11758183_x_at) / Fold change /veh KRT8 (11758183_x_at) / RFU CNN1 (11734310_a_at) / Fold change /veh CNN1 (11734310_a_at) / RFU VPS37D (11726825_at) / Fold change /veh VPS37D (11726825_at) / RFU C10orf10 (11716522_x_at) / Fold change /veh C10orf10 (11716522_x_at) / RFU KIR2DL2 /// KIR2DL4 /// KIR2DL5A /// KIR2DL5B /// KIR2DS1 /// KIR2DS2 /// KIR2DS3 /// KIR2DS4 /// KIR3DL3 /// KIR3DL3 /// KIR3DS1 (11738374_at) / Fold change /veh KIR2DL2 /// KIR2DL4 /// KIR2DL5A /// KIR2DL5B /// KIR2DS1 /// KIR2DS2 /// KIR2DS3 /// KIR2DS4 /// KIR3DL3 /// KIR3DL3 /// KIR3DS1 (11738374_at) / RFU C1QL1 (11718748_at) / Fold change /veh C1QL1 (11718748_at) / RFU TMPRSS4 (11747572_a_at) / Fold change /veh TMPRSS4 (11747572_a_at) / RFU HAMP (11756126_x_at) / Fold change /veh HAMP (11756126_x_at) / RFU RNFT2 (11725882_a_at) / Fold change /veh RNFT2 (11725882_a_at) / RFU NR4A2 (11747474_a_at) / Fold change /veh NR4A2 (11747474_a_at) / RFU ABCC12 (11746883_a_at) / Fold change /veh ABCC12 (11746883_a_at) / RFU TMEM136 (11760407_x_at) / Fold change /veh TMEM136 (11760407_x_at) / RFU CLDN22 /// WWC2 (11732394_at) / Fold change /veh CLDN22 /// WWC2 (11732394_at) / RFU HLA-DPB1 (11760878_x_at) / Fold change /veh HLA-DPB1 (11760878_x_at) / RFU SPINT1 (11716480_a_at) / Fold change /veh SPINT1 (11716480_a_at) / RFU GAP43 (11754022_s_at) / Fold change /veh GAP43 (11754022_s_at) / RFU A4GNT (11735810_at) / Fold change /veh A4GNT (11735810_at) / RFU PRB3 (11715151_x_at) / Fold change /veh PRB3 (11715151_x_at) / RFU TUBB4B (11761932_at) / Fold change /veh TUBB4B (11761932_at) / RFU CAPN14 (11732068_a_at) / Fold change /veh CAPN14 (11732068_a_at) / RFU TMCC2 (11721928_a_at) / Fold change /veh TMCC2 (11721928_a_at) / RFU IRGQ (11745062_a_at) / Fold change /veh IRGQ (11745062_a_at) / RFU FAM174B (11720279_a_at) / Fold change /veh FAM174B (11720279_a_at) / RFU TMPRSS4 (11748680_a_at) / Fold change /veh TMPRSS4 (11748680_a_at) / RFU FAM212B (11763350_a_at) / Fold change /veh FAM212B (11763350_a_at) / RFU PLEKHG5 (11743358_a_at) / Fold change /veh PLEKHG5 (11743358_a_at) / RFU ZSCAN30 (11745921_a_at) / Fold change /veh ZSCAN30 (11745921_a_at) / RFU CMKLR1 (11741424_a_at) / Fold change /veh CMKLR1 (11741424_a_at) / RFU LOC101060620 /// MAPK8IP1 (11723275_at) / Fold change /veh LOC101060620 /// MAPK8IP1 (11723275_at) / RFU SPTSSB (11747773_x_at) / Fold change /veh SPTSSB (11747773_x_at) / RFU PRSS12 (11739890_at) / Fold change /veh PRSS12 (11739890_at) / RFU BIN1 (11741810_x_at) / Fold change /veh BIN1 (11741810_x_at) / RFU WNT11 (11732464_a_at) / Fold change /veh WNT11 (11732464_a_at) / RFU C10orf10 (11716521_a_at) / Fold change /veh C10orf10 (11716521_a_at) / RFU C5orf56 (11738089_at) / Fold change /veh C5orf56 (11738089_at) / RFU CYB561 (11721691_x_at) / Fold change /veh CYB561 (11721691_x_at) / RFU ANKRD19P (11752326_a_at) / Fold change /veh ANKRD19P (11752326_a_at) / RFU OR2T12 /// OR2T33 /// OR2T8 (11738714_s_at) / Fold change /veh OR2T12 /// OR2T33 /// OR2T8 (11738714_s_at) / RFU VCAN (11748164_a_at) / Fold change /veh VCAN (11748164_a_at) / RFU JSRP1 (11732532_at) / Fold change /veh JSRP1 (11732532_at) / RFU KRTAP10-11 (11738290_x_at) / Fold change /veh KRTAP10-11 (11738290_x_at) / RFU MYO3A (11730013_a_at) / Fold change /veh MYO3A (11730013_a_at) / RFU EBF3 (11725865_a_at) / Fold change /veh EBF3 (11725865_a_at) / RFU CAMK2N1 (11719241_x_at) / Fold change /veh CAMK2N1 (11719241_x_at) / RFU C5orf56 (11738088_a_at) / Fold change /veh C5orf56 (11738088_a_at) / RFU OLFML3 (11715873_a_at) / Fold change /veh OLFML3 (11715873_a_at) / RFU LOC100653217 /// NTM (11731650_a_at) / Fold change /veh LOC100653217 /// NTM (11731650_a_at) / RFU MAPK11 (11762145_a_at) / Fold change /veh MAPK11 (11762145_a_at) / RFU FIZ1 (11724087_x_at) / Fold change /veh FIZ1 (11724087_x_at) / RFU OASL (11726364_x_at) / Fold change /veh OASL (11726364_x_at) / RFU SOX15 (11748057_x_at) / Fold change /veh SOX15 (11748057_x_at) / RFU CD79A (11719716_a_at) / Fold change /veh CD79A (11719716_a_at) / RFU HIST1H1D (11736915_at) / Fold change /veh HIST1H1D (11736915_at) / RFU CASKIN2 (11723855_a_at) / Fold change /veh CASKIN2 (11723855_a_at) / RFU LOC730098 (11760151_x_at) / Fold change /veh LOC730098 (11760151_x_at) / RFU OR4N2 (11742367_at) / Fold change /veh OR4N2 (11742367_at) / RFU PRRT2 (11749266_a_at) / Fold change /veh PRRT2 (11749266_a_at) / RFU SNX32 (11753110_a_at) / Fold change /veh SNX32 (11753110_a_at) / RFU CDHR5 (11726645_a_at) / Fold change /veh CDHR5 (11726645_a_at) / RFU RCAN1 (11760418_a_at) / Fold change /veh RCAN1 (11760418_a_at) / RFU FAM167A (11723789_a_at) / Fold change /veh FAM167A (11723789_a_at) / RFU FAM26E (11764081_at) / Fold change /veh FAM26E (11764081_at) / RFU ISYNA1 (11749810_s_at) / Fold change /veh ISYNA1 (11749810_s_at) / RFU ACY1 (11761880_at) / Fold change /veh ACY1 (11761880_at) / RFU 11764098_at / Fold change /veh 11764098_at / RFU SAMD14 (11745864_x_at) / Fold change /veh SAMD14 (11745864_x_at) / RFU NPB (11741838_a_at) / Fold change /veh NPB (11741838_a_at) / RFU TMPRSS6 (11731388_a_at) / Fold change /veh TMPRSS6 (11731388_a_at) / RFU KRTAP10-2 (11738614_at) / Fold change /veh KRTAP10-2 (11738614_at) / RFU ARHGAP8 /// PRR5-ARHGAP8 (11727945_x_at) / Fold change /veh ARHGAP8 /// PRR5-ARHGAP8 (11727945_x_at) / RFU KRTAP5-7 /// NADSYN1 (11734609_at) / Fold change /veh KRTAP5-7 /// NADSYN1 (11734609_at) / RFU RASL12 (11751679_a_at) / Fold change /veh RASL12 (11751679_a_at) / RFU CDKN2B (11736163_a_at) / Fold change /veh CDKN2B (11736163_a_at) / RFU PRF1 (11729649_at) / Fold change /veh PRF1 (11729649_at) / RFU, ZNF638 /// ZNF638-IT1 / Fold change vs veh, ZNF638 /// ZNF638-IT1 / RFU, PANK3 / Fold change vs veh, PANK3 / RFU, SH3YL1 / Fold change vs veh, SH3YL1 / RFU, ZEB2 / Fold change vs veh, ZEB2 / RFU, NRIP1 / Fold change vs veh, NRIP1 / RFU, PTTG1IP / Fold change vs veh, PTTG1IP / RFU, CAPN2 / Fold change vs veh, CAPN2 / RFU, MED14 / Fold change vs veh, MED14 / RFU, SNORA58 / Fold change vs veh, SNORA58 / RFU, C1orf63 / Fold change vs veh, C1orf63 / RFU, LRRFIP1 / Fold change vs veh, LRRFIP1 / RFU, NDUFAF7 / Fold change vs veh, NDUFAF7 / RFU, SLC12A2 / Fold change vs veh, SLC12A2 / RFU, IBTK / Fold change vs veh, IBTK / RFU, ESF1 / Fold change vs veh, ESF1 / Fold change vs veh, TMEM50B / RFU, TAOK1 / Fold change vs veh, TAOK1 / RFU, ACBD3 / Fold change vs veh, ACBD3 / RFU, TMA16 / Fold change vs veh, TMA16 / RFU, RWDD3 / Fold change vs veh, RWDD3 / RFU, BCAT1 / Fold change vs veh, BCAT1 / RFU, EDEM3 / Fold change vs veh, EDEM3 / RFU, TMEM33 / Fold change vs veh, TMEM33 / RFU, WDR75 / Fold change vs veh, WDR75 / RFU, AHCTF1 / Fold change vs veh, AHCTF1 / RFU, TFRC / Fold change vs veh, TFRC / RFU, ZDHHC17 / Fold change vs veh, ZDHHC17 / RFU, NOM1 / Fold change vs veh, NOM1 / RFU, ARL8B / Fold change vs veh, ARL8B / RFU, ZBTB11 / Fold change vs veh, ZBTB11 / RFU, TAMM41 / Fold change vs veh, TAMM41 / RFU, KIAA1704 /// LOC100996395 / Fold change vs veh, KIAA1704 /// LOC100996395 / RFU, ING1 / Fold change vs veh, ING1 / RFU, TRMT61B / Fold change vs veh, TRMT61B / RFU, FUBP3 / Fold change vs veh, FUBP3 / RFU, TP53 / Fold change vs veh, TP53 / RFU, TNKS2 / Fold change vs veh, TNKS2 / RFU, ZFP14 / Fold change vs veh, ZFP14 / RFU, ACTR2 / Fold change vs veh, ACTR2 / RFU, PPP3R1 / Fold change vs veh, PPP3R1 / RFU, PIK3R1 / Fold change vs veh, PIK3R1 / RFU, HNRNPA1 / Fold change vs veh, HNRNPA1 / RFU, RNF170 / Fold change vs veh, RNF170 / RFU, ZNF28 / Fold change vs veh, ZNF28 / RFU, RNGTT / Fold change vs veh, RNGTT / RFU, OGT / Fold change vs veh, OGT / RFU, BRD1 / Fold change vs veh, BRD1 / RFU, MARS / Fold change vs veh, MARS / RFU, ZNF655 / Fold change vs veh, ZNF655 / RFU, FAHD1 / Fold change vs veh, FAHD1 / RFU, BDP1 / Fold change vs veh, BDP1 / RFU, LRRCC1 / Fold change vs veh, LRRCC1 / RFU, ARID1A / Fold change vs veh, ARID1A / RFU, ZNF146 / Fold change vs veh, ZNF146 / RFU, ZNF330 / Fold change vs veh, ZNF330 / RFU, GPN3 / Fold change vs veh, GPN3 / RFU, C9orf123 / Fold change vs veh, C9orf123 / RFU, N4BP2L2 / Fold change vs veh, N4BP2L2 / RFU, ARFIP1 / Fold change vs veh, ARFIP1 / RFU, FAM179B / Fold change vs veh, FAM179B / RFU, BCL10 / Fold change vs veh, BCL10 / RFU, UHRF1BP1L / Fold change vs veh, UHRF1BP1L / RFU, BET1 / Fold change vs veh, BET1 / RFU, CNOT2 / Fold change vs veh, CNOT2 / RFU, ZNF268 / Fold change vs veh, ZNF268 / Fold change vs veh, ZNF507 / RFU, DGCR2 / Fold change vs veh, DGCR2 / RFU, WDSUB1 / Fold change vs veh, WDSUB1 / Fold change vs veh, HSP90B1 /// MIR3652 / RFU, ADSS / Fold change vs veh, ADSS / RFU, GK / Fold change vs veh, GK / RFU, ZNF148 / Fold change vs veh, ZNF148 / RFU, TAF9 / Fold change vs veh, TAF9 / RFU, SLC1A5 / Fold change vs veh, SLC1A5 / RFU, SLMO2 / Fold change vs veh, SLMO2 / RFU, ABCC4 / Fold change vs veh, ABCC4 / RFU, LOC101060439 /// RAP1B / Fold change vs veh, LOC101060439 /// RAP1B / RFU, RFX7 / Fold change vs veh, RFX7 / RFU, GTPBP10 / Fold change vs veh, GTPBP10 / RFU, CNEP1R1 / Fold change vs veh, CNEP1R1 / RFU, BIVM-ERCC5 /// ERCC5 / Fold change vs veh, BIVM-ERCC5 /// ERCC5 / RFU, ILF3 / Fold change vs veh, ILF3 / RFU 11762660_at / Fold change /veh 11762660_at / RFU VCAN (11757783_s_at) / Fold change /veh VCAN (11757783_s_at) / RFU DDX43 (11728927_at) / Fold change /veh DDX43 (11728927_at) / RFU KRT8 (11758188_x_at) / Fold change /veh KRT8 (11758188_x_at) / RFU NKD1 (11759106_at) / Fold change /veh NKD1 (11759106_at) / RFU SRD5A1 (11742802_a_at) / Fold change /veh SRD5A1 (11742802_a_at) / RFU TPSAB1 /// TPSB2 (11721975_s_at) / Fold change /veh TPSAB1 /// TPSB2 (11721975_s_at) / RFU GSTM3 (11746129_a_at) / Fold change /veh GSTM3 (11746129_a_at) / RFU IL23R (11737362_x_at) / Fold change /veh IL23R (11737362_x_at) / RFU TMEM51 (11727254_a_at) / Fold change /veh TMEM51 (11727254_a_at) / RFU PIWIL2 (11732686_x_at) / Fold change /veh PIWIL2 (11732686_x_at) / RFU ORM1 (11744905_x_at) / Fold change /veh ORM1 (11744905_x_at) / RFU CCDC152 (11743942_at) / Fold change /veh CCDC152 (11743942_at) / RFU ECM1 (11717891_a_at) / Fold change /veh ECM1 (11717891_a_at) / RFU IL23R (11748794_a_at) / Fold change /veh IL23R (11748794_a_at) / RFU TNFAIP8L3 (11732012_x_at) / Fold change /veh TNFAIP8L3 (11732012_x_at) / RFU MBOAT4 (11741988_at) / Fold change /veh MBOAT4 (11741988_at) / RFU 11764193_at / Fold change /veh 11764193_at / RFU TMEM53 (11763286_at) / Fold change /veh TMEM53 (11763286_at) / RFU MAGEB2 (11727129_at) / Fold change /veh MAGEB2 (11727129_at) / RFU TMEM200A (11744735_a_at) / Fold change /veh TMEM200A (11744735_a_at) / RFU CCDC152 (11751479_a_at) / Fold change /veh CCDC152 (11751479_a_at) / RFU FAM211A (11726209_a_at) / Fold change /veh FAM211A (11726209_a_at) / RFU RGS16 (11746705_a_at) / Fold change /veh RGS16 (11746705_a_at) / RFU VCAN (11755009_s_at) / Fold change /veh VCAN (11755009_s_at) / RFU RHOB (11743442_s_at) / Fold change /veh RHOB (11743442_s_at) / RFU RGS16 (11720943_a_at) / Fold change /veh RGS16 (11720943_a_at) / RFU RGS16 (11720944_at) / Fold change /veh RGS16 (11720944_at) / RFU, VPS4B / Fold change vs veh, VPS4B / RFU, CREB1 / Fold change vs veh, CREB1 / RFU, DNAJC13 / Fold change vs veh, DNAJC13 / RFU, GNAQ / Fold change vs veh, GNAQ / RFU, CDK5R1 / Fold change vs veh, CDK5R1 / RFU, ZRANB3 / Fold change vs veh, ZRANB3 / RFU, CUL4A / Fold change vs veh, CUL4A / RFU, CCNY / Fold change vs veh, CCNY / RFU, UFL1 / Fold change vs veh, UFL1 / RFU, COG3 / Fold change vs veh, COG3 / RFU, DIAPH2 / Fold change vs veh, DIAPH2 / RFU, SKA2 / Fold change vs veh, SKA2 / RFU, AFF3 / Fold change vs veh, AFF3 / RFU, LMF1 / Fold change vs veh, LMF1 / RFU, IPO11 / Fold change vs veh, IPO11 / RFU, DFFB / Fold change vs veh, DFFB / RFU, FOXP1 / Fold change vs veh, FOXP1 / RFU, CARD8 / Fold change vs veh, CARD8 / RFU, STRN3 / Fold change vs veh, STRN3 / RFU, ADK / Fold change vs veh, ADK / RFU, RASSF2 / Fold change vs veh, RASSF2 / RFU, WIPF1 / Fold change vs veh, WIPF1 / RFU, LARP1B / Fold change vs veh, LARP1B / RFU, RASA1 / Fold change vs veh, RASA1 / RFU, RB1 / Fold change vs veh, RB1 / RFU, PPFIA1 / Fold change vs veh, PPFIA1 / RFU, MAT2A / Fold change vs veh, MAT2A / RFU, CCT5 / Fold change vs veh, CCT5 / RFU, WDR92 / Fold change vs veh, WDR92 / RFU, CUX1 / Fold change vs veh, CUX1 / RFU, TTC7A / Fold change vs veh, TTC7A / RFU, TMEM135 / Fold change vs veh, TMEM135 / RFU, DEPTOR / Fold change vs veh, DEPTOR / RFU, CPM / Fold change vs veh, CPM / RFU, DNAJB6 / Fold change vs veh, DNAJB6 / RFU, CACNA2D3 / Fold change vs veh, CACNA2D3 / RFU, DTX4 / Fold change vs veh, DTX4 / RFU, TFCP2 / Fold change vs veh, TFCP2 / RFU, GMCL1 /// GMCL1P1 / Fold change vs veh, GMCL1 /// GMCL1P1 / RFU, AEBP2 / Fold change vs veh, AEBP2 / RFU, SNHG1 /// SNORD22 /// SNORD25 /// SNORD26 /// SNORD27 /// SNORD28 /// SNORD29 /// SNORD31 / Fold change vs veh, SNHG1 /// SNORD22 /// SNORD25 /// SNORD26 /// SNORD27 /// SNORD28 /// SNORD29 /// SNORD31 / Fold change (Aza/veh), C12orf56 (ProbeSet 11735607_a_at) / Fold change (ACY-1035/veh), C12orf56 (ProbeSet 11735607_a_at) / Fold change (Aza/veh), FGFR1OP (ProbeSet 11751329_s_at) / Fold change (ACY-1035/veh), FGFR1OP (ProbeSet 11751329_s_at) / Fold change (Aza/veh), VPS36 (ProbeSet 11739960_a_at) / Fold change (ACY-1035/veh), VPS36 (ProbeSet 11739960_a_at) / RFU SYPL1 (11715823_x_at) / Fold change /veh SYPL1 (11715823_x_at) / RFU IGFBP7 (11715501_s_at) / Fold change /veh IGFBP7 (11715501_s_at) / RFU REEP3 (11722064_at) / Fold change /veh REEP3 (11722064_at) / RFU IGLL1 (11728026_x_at) / Fold change /veh IGLL1 (11728026_x_at): dose or concentration left out as unconfirmed
# Settings: ProbeSet 11740011_at; LIST B
smiles,measurement,value
Nc1ccc(-c2cccs2)cc1NC(=O)c1ccc2c(c1)cc(C1CC1)n2CCN1CCOCC1 [ACY-1035],"RFU, ZFP14",75.53 RFU
